Literature values in PubChem BioAssay AID1259409 (Chemical Carcinogenesis Research Information System (CCRIS), 2018).

System: rodent chemically induced tumor inhibition, incidence and multiplicity
Test: CCRIS tumor inhibitor studies
Settings: for outcome: Carcinogen: DIMETHYLBENZ[A]ANTHRACENE, Strain/Sex: SENCAR/FEMALE

## O=C(O)CNC(=O)c1ccccc1
Carcinogen: N-BUTYL-N-(4-HYDROXYBUTYL)NITROSAMINE, 3817-11-6, Dose [Inhibitor]: 5% DIET DAILY FOR 34 WK STARTING AT COMPLETION OF CARCINOGEN TREATMENT (STUDY DURATION: 38 WK), Route [Inhibitor]: ORAL, Species: RAT, Strain/Sex: F344/MALE, Target Tissue: Type of Lesion: URINARY BLADDER: PAPILLOMA, Dose [Carcinogen]: 0.01% IN DRINKING WATER FOR 4 WK, Promoter: NONE USED
  tumour outcome (control, treated, inhibition, significance): 33%, 23%, 30%, not significant

## CCCCC1OC(=O)C2=CCCCC21 (configuration not stated)
Carcinogen: BENZO[A]PYRENE, 50-32-8, Dose [Inhibitor]: 0, 20 MG 3/WK FOR 4 WK ON DAYS OTHER THAN THE CARCINOGEN TREATMENT (STUDY DURATION: 20 WK), Route [Inhibitor]: GAVAGE, Species: MOUSE, Strain/Sex: STRAIN-A/FEMALE, Target Tissue: Type of Lesion: FORESTOMACH: TUMOR, Dose [Carcinogen]: 1 MG IN 0.2 ML COTTONSEED OIL 2/WK FOR 4 WK, Promoter: NONE USED
  tumour outcome (control, treated, inhibition, significance): 13/19 (68%), 2/18 (11%), 84%, p<0.025

## CC1=CCC(C(C)(O)CO)CC1 (configuration not stated)
Carcinogen: 7,12-DIMETHYLBENZ[A]ANTHRACENE, 57-97-6, Dose [Inhibitor]: 0, 1% IN DIET FOR 3 WK BEGINNING 2 WK PRIOR TO CARCINOGEN DOSE (STUDY DURATION: 20 WK), Route [Inhibitor]: ORAL, Species: RAT, Strain/Sex: WISTAR/FEMALE, Target Tissue: Type of Lesion: MAMMARY GLAND: CARCINOMA, Dose [Carcinogen]: 50 MG/KG IN SESAME OIL ONCE, Promoter: NONE USED
  tumour outcome (control, treated, inhibition, significance): 98%, 84%, 14%, not significant

## CC(C)=CCOc1c2occc2cc2ccc(=O)oc12
Carcinogen: 7,12-DIMETHYLBENZ[A]ANTHRACENE, 57-97-6, Dose [Inhibitor]: 0, 400 NMOL 1/WK FOR 45 WK APPLIED 5 MIN PRIOR TO EACH CARCINOGEN DOSE (STUDY DURATION: 45 WK), Route [Inhibitor]: DERMAL, Species: MOUSE, Strain/Sex: SENCAR, Target Tissue: Type of Lesion: SKIN: PAPILLOMA, Dose [Carcinogen]: 50 NMOL 1/WK FOR 45 WK, Promoter: NONE USED
  tumour outcome (control, treated, inhibition, significance): 97%, 60%, 38%, p<0.05
Carcinogen: 7,12-DIMETHYLBENZ[A]ANTHRACENE, 57-97-6, Dose [Inhibitor]: 0, 400 NMOL ONCE APPLIED 5 MIN PRIOR TO CARCINOGEN DOSE (STUDY DURATION: 25 WK), Route [Inhibitor]: DERMAL, Species: MOUSE, Strain/Sex: SENCAR, Target Tissue: Type of Lesion: SKIN: PAPILLOMA, Dose [Carcinogen]: 10 NMOL ONCE, Promoter: 12-O-TETRADECANOYLPHORBOL-13-ACETATE, 16561-29-8
  tumour outcome (control, treated, inhibition, significance): 93%, 93%, 0%, not significant
Carcinogen: 7,12-DIMETHYLBENZ[A]ANTHRACENE, 57-97-6, Dose [Inhibitor]: 0, 800 NMOL ONCE APPLIED 5 MIN PRIOR TO CARCINOGEN DOSE (STUDY DURATION: 25 WK), Route [Inhibitor]: DERMAL, Species: MOUSE, Strain/Sex: SENCAR, Target Tissue: Type of Lesion: SKIN: PAPILLOMA, Dose [Carcinogen]: 200 NMOL ONCE, Promoter: 12-O-TETRADECANOYLPHORBOL-13-ACETATE, 16561-29-8
  tumour outcome (control, treated, inhibition, significance): 93%, 75%, 19%, not significant
Carcinogen: 7-12-DIMETHYLBENZ[A]ANTHRACENE, 57-97-6, Dose [Inhibitor]: 0, 400 NMOL 1/WK FOR 45 WK APPLIED 5 MIN PRIOR TO EACH CARCINOGEN DOSE (STUDY DURATION: 45 WK), Route [Inhibitor]: DERMAL, Species: MOUSE, Strain/Sex: SENCAR, Target Tissue: Type of Lesion: SKIN: CARCINOMA, Dose [Carcinogen]: 50 NMOL 1/WK FOR 45 WK
  tumour outcome (control, treated, inhibition, significance): 90%, 53%, 41%, not calculated
Carcinogen: 7-12-DIMETHYLBENZ[A]ANTHRACENE, 57-97-6, Dose [Inhibitor]: 0, 800 NMOL 1/WK FOR 45 WK APPLIED 5 MIN PRIOR TO EACH CARCINOGEN DOSE (STUDY DURATION: 45 WK), Route [Inhibitor]: DERMAL, Species: MOUSE, Strain/Sex: SENCAR, Target Tissue: Type of Lesion: SKIN: CARCINOMA, Dose [Carcinogen]: 50 NMOL 1/WK FOR 45 WK
  tumour outcome (control, treated, inhibition, significance): 90%, 37%, 59%, not calculated
Carcinogen: 7-12-DIMETHYLBENZ[A]ANTHRACENE, 57-97-6, Dose [Inhibitor]: 0, 800 NMOL 1/WK FOR 45 WK APPLIED 5 MIN PRIOR TO EACH CARCINOGEN DOSE (STUDY DURATION: 45 WK), Route [Inhibitor]: DERMAL, Species: MOUSE, Strain/Sex: SENCAR, Target Tissue: Type of Lesion: SKIN: PAPILLOMA, Dose [Carcinogen]: 50 NMOL 1/WK FOR 45 WK
  tumour outcome (control, treated, inhibition, significance): 97%, 53%, 45%, p<0.05
Carcinogen: BENZO[A]PYRENE, 50-32-8, Dose [Inhibitor]: 0, 800 NMOL ONCE APPLIED 5 MIN PRIOR TO CARCINOGEN DOSE (STUDY DURATION: 25 WK), Route [Inhibitor]: DERMAL, Species: MOUSE, Strain/Sex: SENCAR, Target Tissue: Type of Lesion: SKIN: PAPILLOMA, Dose [Carcinogen]: 200 NMOL ONCE, Promoter: 12-O-TETRADECANOYLPHORBOL-13-ACETATE, 16561-29-8
  tumour outcome (control, treated, inhibition, significance): 92%, 92%, 0%, not significant
Carcinogen: BENZO[A]PYRENE, 50-32-8, Dose [Inhibitor]: 0, 1600 NMOL ONCE APPLIED 5 MIN PRIOR TO CARCINOGEN DOSE (STUDY DURATION: 25 WK), Route [Inhibitor]: DERMAL, Species: MOUSE, Strain/Sex: SENCAR, Target Tissue: Type of Lesion: SKIN: PAPILLOMA, Dose [Carcinogen]: 200 NMOL ONCE, Promoter: 12-O-TETRADECANOYLPHORBOL-13-ACETATE, 16561-29-8
  tumour outcome (control, treated, inhibition, significance): 92%, 85%, 8%, not significant

## Cc1cc2cc3ccc4cccc5ccc(c2oc1=O)c3c45
57-97-6, Dose [Inhibitor]: 0, 200 NMOL IN ACETONE ONCE 5 MIN PRIOR TO CARCINOGEN DOSE (STUDY DURATION: 14 WK), Route [Inhibitor]: DERMAL, Species: MOUSE, Target Tissue: Type of Lesion: SKIN: PAPILLOMA, Dose [Carcinogen]: 10 NMOL ONCE, Promoter: 12-O-TETRADECANOYLPHORBOL-13-ACETATE, 16561-29-8
  outcome: 8.9, 2.8, 69%, p<0.05
57-97-6, Dose [Inhibitor]: 0, 200 NMOL IN ACETONE ONCE 24 HR PRIOR TO CARCINOGEN DOSE (STUDY DURATION: 14 WK), Route [Inhibitor]: DERMAL, Species: MOUSE, Target Tissue: Type of Lesion: SKIN: PAPILLOMA, Dose [Carcinogen]: 10 NMOL ONCE, Promoter: 12-O-TETRADECANOYLPHORBOL-13-ACETATE, 16561-29-8
  outcome: 8.9, 2.1, 76%, p<0.05
57-97-6, Dose [Inhibitor]: 0, 400 NMOL IN ACETONE ONCE 5 MIN PRIOR TO CARCINOGEN DOSE (STUDY DURATION: 14 WK), Route [Inhibitor]: DERMAL, Species: MOUSE, Target Tissue: Type of Lesion: SKIN: PAPILLOMA, Dose [Carcinogen]: 10 NMOL ONCE, Promoter: 12-O-TETRADECANOYLPHORBOL-13-ACETATE, 16561-29-8
  outcome: 8.9, 3.3, 63%, p<0.05

## C[C@H]1CCCC(=O)CCC/C=C/c2cc(O)cc(O)c2C(=O)O1
Carcinogen: 7,12-DIMETHYLBENZ[A]ANTHRACENE [57-97-6], Dose [Inhibitor]: 20 UG/L IN 0.05 ML PEANUT OIL 2X/WK FOR 2 WK BEGINNING AT 7 D OF AGE (STUDY DURATION: 24 WK), Route [Inhibitor]: SUBCUTANEOUS, Species: RAT, Strain/Sex: SPRAGUE-DAWLEY/FEMALE, Target Tissue: Type of Lesion: MAMMARY GLAND: TUMOR, Dose [Carcinogen]: 10 MG IN 1 ML PEANUT OIL ONCE AT 45 D OF AGE (STUDY DURATION: 24 WK), Promoter: NONE
  tumour outcome (control, treated, inhibition, significance): 17/30 (57%), 9/30 (30%), 47%, p<0.018

## CC(C)(O)CCC(=O)C(C)(O)C1[C@H](O)C[C@@]2(C)[C@@H]3CC=C4[C@@H](C[C@H](O)[C@@H](O)C4(C)C)[C@]3(C)C(=O)C[C@]12C (some centres not stated)
Carcinogen: 7,12-DIMETHYLBENZ[A]ANTHRACENE, 57-97-6, Dose [Inhibitor]: 0, 85 NMOL IN 0.1 ML ACETONE APPLIED 1 HR PRIOR TO EACH PROMOTER DOSE 2/WK FOR 20 WK (STUDY DURATION: 21 WK), Route [Inhibitor]: DERMAL, Species: MOUSE, Strain/Sex: ICR/FEMALE, Target Tissue: Type of Lesion: SKIN: PAPILLOMA, Dose [Carcinogen]: 100 UG IN 0.1 ML ACETONE ONCE, Promoter: 12-O-TETRADECANOYLPHORBOL-13-ACETATE, 16561-29-8
  tumour outcome (control, treated, inhibition, significance): 100%, 100%, 0%, not significant

## COc1ccc2nc(S(=O)Cc3ncc(C)c(OC)c3C)[nH]c2c1 (configuration not stated)
Carcinogen: AZOXYMETHANE, 25843-45-2, Dose [Inhibitor]: 0, 40 UMOL/KG 1/D FOR 27 WK BEGINNING 6 WK PRIOR TO CARCINOGEN TREATMENT (STUDY DURATION: 27 WK), Route [Inhibitor]: GAVAGE, Species: RAT, Strain/Sex: SPRAGUE-DAWLEY/FEMALE, Target Tissue: Type of Lesion: COLON: TUMOR, Dose [Carcinogen]: 10 MG/KG 1/WK FOR 12 WK, Promoter: NONE USED
  tumour outcome (control, treated, inhibition, significance): 19/20 (95%), 12/19 (63%), 34%, p<0.02
